Data: patent US7205305B2, “Inhibitors of p38” (Vertex Pharmaceuticals Incorporated, priority 1996, dated 2007)

Assays:
activated p38 = activated p38 (Homo sapiens, UniProt Q16539); assay: Inhibition of phosphorylation of EGF receptor peptide ("kinase"); format: biochemical; conditions: inhibition of phosphorylation of EGF receptor peptide by activated p38
Description: This assay was carried out in the presence of 10 mM MgCl2, 25 mM β-glycerophosphate, 10% glycerol and 100 mM HEPES buffer at pH 7.6. […] The stock solution was aliquotted into vials. A fixed volume of DMSO or inhibitor in DMSO (final concentration of DMSO in reaction was 5%) was introduced to each vial, mixed and incubated for 15 minutes at room temperature. EGF receptor peptide, […], a phosphoryl acceptor in p38-catalyzed kinase reaction (1), was added to each vial to a final concentration of 200 μM. The kinase reaction was initiated with ATP (100 μM) and the vials were incubated at 30° C. After 30 minutes, the reactions were quenched with equal volume of 10% trifluoroacetic acid (TFA).
The phosphorylated peptide was quantified by HPLC analysis. Separation of phosphorylated peptide from the unphosphorylated peptide was achieved on a reverse phase column (Deltapak, 5 μm, C18 100D, part no. 011795) with a binary gradient of water and acteonitrile, each containing 0.1% TFA.

[1] = system: IL-1 production in LPS-stimulated PBMCs; assay: Inhibition of IL-1 production in LPS-stimulated PBMCs ("cell"); format: cell-based, human; conditions: Homo sapiens, PBMC
Description: (§1) Inhibitors were serially diluted in DMSO from a 20 mM stock. At least 6 serial dilutions were prepared. Then 4× inhibitor stocks were prepared by adding 4 μl of an inhibitor dilution to 1 ml of RPMI1640 medium/10% fetal bovine serum. The 4× inhibitor stocks contained inhibitor at concentrations of 80 μM, 32 μM, 12.8 μM, 5.12 μM, 2.048 μM, 0.819 μM, 0.328 μM, 0.131 μM, 0.052 μM, 0.021 μM etc. The 4× inhibitor stocks were pre-warmed at 37° C. until use.
(§2) Fresh human blood buffy cells were separated from other cells in a Vacutainer CPT from Becton & Dickinson (containing 4 ml blood and enough DPBS without Mg^2+/Ca^2+ to fill the tube) by centrifugation at 1500×g for 15 min. Peripheral blood mononuclear cells (PBMCs), located on top of the gradient in the Vacutainer, were removed and washed twice with RPMI1640 medium/10% fetal bovine serum. PBMCs were collected by centrifugation at 500×g for 10 min. The total cell number was determined using a Neubauer Cell Chamber and the cells were adjusted to a concentration of 4.8×10^6 cells/ml in cell culture medium (RPMI1640 supplemented with 10% fetal bovine serum).
(§3) We placed 100 μl of cell suspension or whole blood in each well of a 96-well cell culture plate. Then we added 50 μl of the 4× inhibitor stock to the cells. Finally, we added 50 μl of a lipopolysaccharide (LPS) working stock solution (16 ng/ml in cell culture medium) to give a final concentration of 4 ng/ml LPS in the assay. The total assay volume of the vehicle control was also adjusted to 200 μl by adding 50 μl cell culture medium. The PBMC cells or whole blood were then incubated overnight (for 12–15 hours) at 37° C./5% CO2 in a humidified atmosphere.
(§4) The next day the cells were mixed on a shaker for 3–5 minutes before centrifugation at 500×g for 5 minutes. Cell culture supernatants were harvested and analyzed by ELISA for levels of IL-1b (R & D Systems, Quantikine kits, #DBL50), TNF-α (BioSource, #KHC3012), IL-6 (Endogen, #EH2-IL6) and IL-8 (Endogen, #EH2-IL8) according to the instructions of the manufacturer. The ELISA data were used to generate dose-response curves from which IC50 values were derived.

[2] = system: TNF production in LPS-stimulated PBMCs; assay: Inhibition of TNF production in LPS-stimulated PBMCs ("cell"); format: cell-based, human; conditions: Homo sapiens, PBMC
Description: as §1, §2, §3, §4

[3] = system: IL-1 production in whole blood; assay: Inhibition of IL-1 production in LPS-stimulated whole blood ("WB"); format: cell-based, human; conditions: Homo sapiens
Description: as §1
(§5) Alternatively, whole blood containing an anti-coagulant was used directly in the assay.
as §3, §4

[4] = system: TNF production in whole blood; assay: Inhibition of TNF production in LPS-stimulated whole blood ("WB"); format: cell-based, human; conditions: Homo sapiens
Description: as §1, §5, §3, §4

[5] = system: IL-6 production in whole blood; assay: Inhibition of IL-6 production in LPS-stimulated whole blood ("WB"); format: cell-based, human; conditions: Homo sapiens
Description: as §1, §5, §3, §4

Sequence of activated p38 (Q16539 whole entry): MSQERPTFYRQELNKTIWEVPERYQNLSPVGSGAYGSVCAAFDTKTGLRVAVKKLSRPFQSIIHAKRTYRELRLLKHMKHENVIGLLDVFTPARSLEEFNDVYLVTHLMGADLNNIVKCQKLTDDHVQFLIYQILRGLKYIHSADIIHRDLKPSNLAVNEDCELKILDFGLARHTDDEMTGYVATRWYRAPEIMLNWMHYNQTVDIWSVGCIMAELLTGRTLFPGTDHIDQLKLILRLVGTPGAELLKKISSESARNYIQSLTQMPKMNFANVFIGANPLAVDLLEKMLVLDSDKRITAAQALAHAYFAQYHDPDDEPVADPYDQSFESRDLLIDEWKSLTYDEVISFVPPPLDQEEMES

| Compound | IC50 (activated p38) | IC50 [1] | IC50 [2] | IC50 [3] | IC50 [4] | IC50 [5] |
| --- | --- | --- | --- | --- | --- | --- |
| NC(=O)C(c1cccc(-c2ccccc2)n1)c1c(Cl)cccc1Cl (centres unmarked) [202/301] | ≤ 100 nM | 100 to 500 nM | 100 to 500 nM | ≥ 500 nM | ≥ 500 nM | ≥ 500 nM |
| O=c1ncn2nc(Sc3ccc(F)cc3)ccc2c1-c1c(Cl)cccc1Cl [Compound 12] | 100 to 1000 nM | 100 to 500 nM | 100 to 500 nM | ≥ 500 nM | ≥ 500 nM | ≥ 500 nM |
| Cc1ccccc1Sc1ccc2c(-c3c(Cl)cccc3Cl)c(=O)ncn2n1 [Compound 23] | 100 to 1000 nM | 100 to 500 nM | ≥ 500 nM | ≥ 500 nM | ≥ 500 nM | ≥ 500 nM |
| O=c1ncn2nc(Sc3ccc(F)c(Cl)c3)ccc2c1-c1c(Cl)cccc1Cl [Compound 24] | 100 to 1000 nM | 100 to 500 nM | 100 to 500 nM | ≥ 500 nM | ≥ 500 nM | – |
| COC(=O)c1ccccc1Sc1ccc2c(-c3c(Cl)cccc3Cl)c(=O)ncn2n1 [Compound 26] | ≥ 1000 nM | ≤ 100 nM | 100 to 500 nM | ≥ 500 nM | ≥ 500 nM | ≥ 500 nM |
| O=C(O)c1ccccc1Sc1ccc2c(-c3c(Cl)cccc3Cl)c(=O)ncn2n1 [Compound 27] | 100 to 1000 nM | ≥ 500 nM | ≥ 500 nM | ≥ 500 nM | ≥ 500 nM | ≥ 500 nM |
| O=c1ncn2nc(Sc3ccccn3)ccc2c1-c1c(Cl)cccc1Cl [Compound 30] | ≥ 1000 nM | ≥ 500 nM | ≥ 500 nM | ≥ 500 nM | – | – |
| Cc1ccc(Sc2ccc3c(-c4c(Cl)cccc4Cl)c(=O)ncn3n2)c(C)c1 [Compound 32] | 100 to 1000 nM | ≥ 500 nM | 100 to 500 nM | ≥ 500 nM | ≥ 500 nM | ≥ 500 nM |
| O=c1ncn2nc(Sc3ccccc3O)ccc2c1-c1c(Cl)cccc1Cl [Compound 33] | 100 to 1000 nM | 100 to 500 nM | 100 to 500 nM | ≥ 500 nM | ≥ 500 nM | ≥ 500 nM |
| Nc1cc(F)ccc1Sc1ccc2c(-c3c(Cl)cccc3Cl)c(=O)ncn2n1 [Compound 35] | 100 to 1000 nM | 100 to 500 nM | ≥ 500 nM | ≥ 500 nM | ≥ 500 nM | ≥ 500 nM |
| COc1ccc(-c2c(=O)ncn3nc(Sc4ccc(F)cc4)ccc23)c(Cl)c1OC [Compound 36] | ≥ 1000 nM | ≥ 500 nM | ≥ 500 nM | ≥ 500 nM | ≥ 500 nM | ≥ 500 nM |
| Nc1ccc(Cl)c(-c2c(=O)ncn3nc(Sc4ccc(Br)cc4)ccc23)c1Cl [Compound 37] | 100 to 1000 nM | 100 to 500 nM | ≥ 500 nM | ≥ 500 nM | ≥ 500 nM | ≥ 500 nM |
| O=c1ncn2nc(Sc3ccc(F)cc3Cl)ccc2c1-c1c(Cl)cccc1Cl [Compound 38] | ≤ 100 nM | ≤ 100 nM | 100 to 500 nM | 250 to 500 nM | 250 to 500 nM | 250 to 500 nM |
| O=C(CCl)Nc1ccc(-c2c(=O)ncn3nc(Sc4ccc(F)cc4)ccc23)c(Cl)c1 [Compound 49] | 100 to 1000 nM | ≤ 100 nM | ≥ 500 nM | ≥ 500 nM | ≥ 500 nM | ≥ 500 nM |
| COC(=O)c1ccccc1SC1=NN2CNC(=O)C(c3c(Cl)cccc3Cl)=C2C=C1 [Compound 101] | 100 to 1000 nM | ≤ 100 nM | ≤ 100 nM | ≥ 500 nM | ≥ 500 nM | 250 to 500 nM |
| Cc1ccccc1SC1=NN2CNC(=O)C(c3c(Cl)cccc3Cl)=C2C=C1 [Compound 102] | ≤ 100 nM | ≤ 100 nM | ≤ 100 nM | ≥ 500 nM | 250 to 500 nM | 250 to 500 nM |
| O=C1NCN2N=C(Sc3ccc(F)cc3)C=CC2=C1c1c(Cl)cccc1Cl [Compound 103] | ≤ 100 nM | ≤ 100 nM | ≤ 100 nM | ≥ 500 nM | 250 to 500 nM | 250 to 500 nM |
| O=C1NCN2N=C(Sc3ccccc3C(=O)O)C=CC2=C1c1c(Cl)cccc1Cl [Compound 104] | 100 to 1000 nM | 100 to 500 nM | 100 to 500 nM | ≥ 500 nM | ≥ 500 nM | ≥ 500 nM |

| Compound | IC50 (activated p38) | IC50 [1] | IC50 [2] | IC50 [3] | IC50 [4] | IC50 [5] |
| --- | --- | --- | --- | --- | --- | --- |
| Cc1cc(Cl)ccc1SC1=NN2CNC(=O)C(c3c(Cl)cccc3Cl)=C2C=C1 [Compound 106] | ≤ 100 nM | ≤ 100 nM | ≤ 100 nM | ≥ 500 nM | 250 to 500 nM | 250 to 500 nM |
| COC(=O)CCc1ccc(SC2=NN3CNC(=O)C(c4c(Cl)cccc4Cl)=C3C=C2)cc1 [Compound 120] | – | 100 to 500 nM | ≥ 500 nM | ≥ 500 nM | ≥ 500 nM | ≥ 500 nM |
| NC(=O)C(c1cccc(-c2cccc(Cl)c2)n1)c1c(Cl)cccc1Cl (centres unmarked) [Compound 320] | ≤ 100 nM | 100 to 500 nM | 100 to 500 nM | – | – | – |
| COc1cccc(-c2cccc(C(C(N)=O)c3c(Cl)cccc3Cl)n2)c1 (centres unmarked) [Compound 322] | 100 to 1000 nM | ≥ 500 nM | ≥ 500 nM | – | – | – |
| NC(=O)C(c1cccc(-c2cccc(F)c2)n1)c1c(Cl)cccc1Cl (centres unmarked) [Compound 323] | 100 to 1000 nM | 100 to 500 nM | 100 to 500 nM | – | – | – |
| COc1ccccc1-c1cccc(C(C(N)=O)c2c(Cl)cccc2Cl)n1 (centres unmarked) [Compound 324] | 100 to 1000 nM | 100 to 500 nM | ≥ 500 nM | – | – | – |
| NC(=O)C(c1cccc(-c2ccc(F)c(Cl)c2)n1)c1c(F)cccc1Cl (centres unmarked) [Compound 333] | 100 to 1000 nM | ≥ 500 nM | ≥ 500 nM | – | – | – |
| NC(=O)C(c1cccc(-c2cccc(Cl)c2)n1)c1c(F)cccc1Cl (centres unmarked) [Compound 341] | 100 to 1000 nM | 100 to 500 nM | 100 to 500 nM | – | – | – |
| NC(=O)C(c1cccc(-c2ccccc2CN2CCCC2)n1)c1c(Cl)cccc1Cl (centres unmarked) [Compound 350] | ≥ 1000 nM | 100 to 500 nM | ≥ 500 nM | – | – | – |
| NC(=O)C(c1cccc(-c2ccccc2CNCCO)n1)c1c(Cl)cccc1Cl (centres unmarked) [Compound 351] | ≥ 1000 nM | ≥ 500 nM | ≥ 500 nM | – | – | – |
| NC(=O)C(c1cccc(-c2cccc(C(F)(F)F)c2)n1)c1c(F)cccc1Cl (centres unmarked) [Compound 353] | 100 to 1000 nM | ≥ 500 nM | ≥ 500 nM | – | – | – |
| NC(=O)C(c1cccc(-c2ccccc2CNc2ccccc2)n1)c1c(Cl)cccc1Cl (centres unmarked) [Compound 358] | 100 to 1000 nM | ≥ 500 nM | ≥ 500 nM | – | – | – |
| Cc1cc(F)ccc1-c1cccc(C(C(N)=O)c2c(F)cccc2Cl)n1 (centres unmarked) [Compound 361] | 100 to 1000 nM | 100 to 500 nM | ≥ 500 nM | – | – | – |
| Cc1ccccc1-c1cccc(N(C(N)=O)c2c(C)cccc2C)n1 [Compound 405] | ≤ 100 nM | ≤ 100 nM | 100 to 500 nM | – | – | – |
| Cc1ccc(-c2cccc(N(C(N)=O)c3c(Cl)cccc3Cl)n2)cc1 [Compound 406] | 100 to 1000 nM | 100 to 500 nM | ≥ 500 nM | – | – | – |
| Cc1cccc(C)c1N(C(N)=O)c1cccc(-c2ccc(F)cc2)n1 [Compound 407] | 100 to 1000 nM | 100 to 500 nM | ≥ 500 nM | – | – | – |
| NC(=O)N(c1cccc(-c2ccc(Cl)cc2)n1)c1c(Cl)cccc1Cl [Compound 408] | ≤ 100 nM | ≤ 100 nM | 100 to 500 nM | – | – | – |
